Measurements from US6391564B1, “Methods and compositions utilizing Rad51” (priority 1997, dated 2002).
Read-outs that look alike come from different tables or passages of the source.

Assays:
LNL8 fibroblasts = experiment: Immunofluorescent staining of Rad51 foci in nuclei and micronuclei of LNL8 fibroblasts; assay type: cell-based; conditions: human LNL8 fibroblast cultures, non-lethal doses of 5-aza-dC
Source text: (§1) Immunofluorescent Staining.
(§2) Digital Imaging Microscopy.

TGR-1 cells [1] = tested on: TGR-1 cells
Protocol: To induce DSBs in DNA and recombinational repair, cell cultures were exposed to a ^137CS irradiator at doses of 900 rad and then allowed to recover for various time spans. In another experiment, cells were treated with 10 μM 5-aza-dC for 24 hrs.
Immunofluorescent Staining. Harvested cells were washed and resuspended in PBS. Cell density was adjusted to ˜10^5 cells/ml. 0.5 ml aliquots of this cell suspension were centrifuged onto clean glass slides at 800 rpm for 4 min, using a Shandon Cytospin. Immediately after cytocentrifugation, the preparations were fixed in absolute methanol for 30 min at −20° C. and then rinsed in ice-cold acetone for a few seconds. Following three washes with PBS, the preparations were incubated at 37° C. with rabbit anti-HsRad51 antiserum, diluted 1:100 with PBS, in a humidified incubator for 30 min. For some experiments, the slides were simultaneously labeled with rat anti-HsRad52 antiserum or mouse monoclonal antibody. The slides were then washed in PBS another three times for 10 min each and incubated for 30 min with fluorescein-isothiocyanate (FITC)-conjugated anti-rabbit IaG, appropriately diluted with PBS. Rad52, Gadd45, p53, and RNAPII were detected with rhodamine, conjugated anti-rat IgG or anti-mouse IgG+IgM. After three further washes with PBS, the preparations were counterstained with 1 μg/ml 4,6-diamidino-2-phenylindole (DAPI) in 2×SSC for 5 min. The slides were mounted in 90% glycerol, 0.1 M Tris-HCl, pH 8.0, and 2.3% 1,4-diazobicyclo-2,2,2-octane (DABCO).
(§3) Fluorescence In Situ End Labeling (FISEL). FISEL detects cell death (apoptosis) in situ by quantitating DNA strand breaks in individual nuclei. It uses terminal transferase (TdT) to label the 3′-ends in fragmented genomic DNA with biotinylated nucleotide. 100 μl of reaction mix contain 1 μl (25 Units) TdT (Boehringer Mannheim), 20 μl 5×TdT buffer (supplied with the enyzme), 1 μl 0.5 mM biotin-ll-dUTP, 3 μl 0.5 mM dTTP, and 75 μl ddH2O. Cytological preparations are incubated at 37° C. for 1 hr with this reaction mix. Washing the slides for 3×5 min in PBS is sufficient to terminate the reaction. The incorporated biotin-dUTP is detected with rhodarnine-conjugated avidin.
Digital Imaging Microscopy. Images were taken with a Zeiss epifluorescence microscope equipped with a thermoelectronically cooled charge coupled device (CCD) camera (Photometries CH250), which was controlled by an Apple Macintosh computer. Gray scale source images were captured separately with filter sets for FITC, rhodamine, and DAPI. Gray scale images were pseudocolored and merged using ONCOR Image and ADOBE Photoshop software.

TGR-1 cells [2] = experiment: Immunofluorescent staining of Rad51 foci in nuclei and micronuclei of TGR-1 cells; assay type: cell-based, rat; conditions: TGR-1 cultures treated with etoposide, FIG. 5D
Source text: as §1, §2

TGR-1 cells [3] = experiment: Apoptosis by fluorescence in situ end labeling (FISEL) in TGR-1 cells; assay type: cell-based, rat; conditions: After 36 hrs etoposide in culture medium
Protocol: Treatment with etoposide (Sedivy), a drug that inhibits DNA topoisomerase II, is a classic system for inducing apoptosis in cells (Mizumoto, et al., (1994). Mol. Pharmac. 46, 890-895).
as §3

[4] = 24 hrs 0.1 μg/ml colcemid, 1 day of recovery
[5] = 24 hrs 0.1 μg/ml colcemid, 2 days of recovery
[6] = 24 hrs 0.1 μg/ml colcemid, 3 days of recovery
[7] = 24 hrs 0.1 μg/ml colcemid, no recovery

Nc1ncn([C@H]2C[C@H](O)[C@@H](CO)O2)c(=O)n1 [5-aza-dC, 5-azadeoxycytidine]
cells displaying MN with focally concentrated Rad51 protein (LNL8 fibroblasts): 5-10%

CN[C@H]1CCc2cc(OC)c(OC)c(OC)c2-c2ccc(OC)c(=O)cc21 [Colcemid, colcemid]
colcemid-treated cells arrested at metaphase (TGR-1 cells [1]; 24 hrs 0.1 μg/ml colcemid): 185
Percentage of Cells Showing Rad51+/FISEL+ (TGR-1 cells [1]; [4]): 1%
Percentage of Cells Showing Rad51+/FISEL− (TGR-1 cells [1]; [4]): 31%
Percentage of Cells Showing Rad51−/FISEL+ (TGR-1 cells [1]; [4]): 14%
Percentage of Cells Showing Rad51−/FISEL− (TGR-1 cells [1]; [4]): 54%
Percentage of Cells Showing Rad51+/FISEL+ (TGR-1 cells [1]; [5]): 6%
Percentage of Cells Showing Rad51+/FISEL− (TGR-1 cells [1]; [5]): 9%
Percentage of Cells Showing Rad51−/FISEL+ (TGR-1 cells [1]; [5]): 40%
Percentage of Cells Showing Rad51−/FISEL− (TGR-1 cells [1]; [5]): 45%
Percentage of Cells Showing Rad51+/FISEL+ (TGR-1 cells [1]; [6]): 4%
Percentage of Cells Showing Rad51+/FISEL− (TGR-1 cells [1]; [6]): 7%
Percentage of Cells Showing Rad51−/FISEL+ (TGR-1 cells [1]; [6]): 46%
Percentage of Cells Showing Rad51−/FISEL− (TGR-1 cells [1]; [6]): 43%
Percentage of Cells Showing Rad51+/FISEL+ (TGR-1 cells [1]; [7]): 0%
Percentage of Cells Showing Rad51+/FISEL− (TGR-1 cells [1]; [7]): 6%
Percentage of Cells Showing Rad51−/FISEL+ (TGR-1 cells [1]; [7]): 9%
Percentage of Cells Showing Rad51−/FISEL− (TGR-1 cells [1]; [7]): 85%
induced MN containing very brightly fluorescing Rad51 foci (TGR-1 cells [1]; colcemid-treated cells recovered 24 hrs in drug-free medium): over 30%

COc1cc([C@@H]2c3cc4c(cc3[C@@H](O[C@@H]3O[C@@H]5CO[C@@H](C)O[C@H]5[C@H](O)[C@H]3O)[C@H]3COC(=O)[C@H]23)OCO4)cc(OC)c1O [etoposide]
content of induced micronuclei (Rad51 protein, fragmented DNA) (TGR-1 cells [2]): contain Rad51 protein
cells showing genome fragmentation (FISEL-positive) (TGR-1 cells [3]): half of the cells showed genome fragmentation
